Measurements published in paper PMC12862769 (ACS infectious diseases, 2025).
≈ marks a conversion by molar mass, not a printed value. Read-outs that look alike come from different tables or passages of the source.

Columns and labels:
E. faecium HM-965 = assay: MIC assay; assay type: cell-based
E. faecium HM-968 = settings: cited from earlier work
[1] = test system: all tested Enterococcus strains; assay: MIC assay, all tested Enterococcus strains; assay type: cell-based
E. faecium NR-31912 = assay: MIC assay; assay type: cell-based
E. faecalis HM-201 = assay: MIC assay; assay type: cell-based
[2] = test system: Staphylococcus aureus USA300; assay: MIC assay; assay type: cell-based; settings: no CAs, expresses MpsAB homologs
E. faecium NR-31914 = settings: cited from earlier work
[3] = test system: α-Carbonic anhydrase (Q3XYE8); settings: lysates pre-incubated with 100 μM free inhibitor, compared to Biotin-AZM; α-CA
E. avium ATCC 14025 = assay: MIC assay; assay type: cell-based
E. faecium NR-28978 = settings: cited from earlier work
E. raffinosus ATCC 49464 = assay: MIC assay; assay type: cell-based
E. faecium NR-32065 = settings: cited from earlier work
[4] = test system: E. casseliflavus ATCC 700327; assay: MIC assay; assay type: cell-based
E. gallinarum ATCC 49373 = assay: MIC assay; assay type: cell-based
E. faecium NR-31916 = settings: cited from earlier work
E. faecium NR-32053 = assay: MIC assay; assay type: cell-based
E. faecium NR-31909 [5] = assay: E. faecium septicemic peritonitis mouse model; assay type: in vivo, BALB/c mice
[6] = test system: Bacillus subtilis ATCC11774; assay: MIC assay; assay type: cell-based; settings: encodes both MpsAB and CAs
E. faecalis HM-934 = assay: MIC assay; assay type: cell-based
E. faecium ATCC 700221 = assay: MIC assay; assay type: cell-based
E. faecalis HM-335 = settings: cited from earlier work
E. durans ATCC 11576 = assay: MIC assay; assay type: cell-based
E. faecium HM-970 = assay: MIC assay; assay type: cell-based
E. faecalis HM-334 = settings: cited from earlier work
E. faecium NR-31937 = assay: MIC assay; assay type: cell-based
E. faecium NR-31933 = assay: MIC assay; assay type: cell-based
[7] = test system: Staphylococcus epidermidis NRS101; assay: MIC assay; assay type: cell-based; settings: no CAs, expresses MpsAB homologs
E. faecalis NR-31972 = settings: cited from earlier work
E. hirae ATCC 10541 = assay: MIC assay; assay type: cell-based
E. faecium NR-31909 [8] = assay: MIC assay; assay type: cell-based
E. faecium NR-31954 = assay: MIC assay; assay type: cell-based
[9] = test system: Listeria Monocytogenes ATCC 19111; assay: MIC assay; assay type: cell-based; settings: encodes only α-CA, no MpsAB homologs
E. faecium NR-32052 = settings: cited from earlier work
[10] = test system: E. faecalis and E. faecium strains; assay: MIC assay, panel of 25 E. faecalis and E. faecium strains; assay type: cell-based; settings: ambient air
E. faecalis NR-31971 = settings: cited from earlier work
E. faecium NR-32094 = assay: MIC assay; assay type: cell-based
E. faecalis NR-31970 = assay: MIC assay; assay type: cell-based
E. faecium α-CA = assay: in vitro inhibition of bacterial α-CA; assay type: biochemical
E. faecium HM-952 = assay: MIC assay; assay type: cell-based
E. faecium NR-31903 = settings: cited from earlier work
[11] = test system: E. saccharolyticus ATCC 43076; assay: MIC assay; assay type: cell-based

For `CC(=O)Nc1nnc(S(N)(=O)=O)s1` [AZM, acetazolamide], the MIC (E. faecium HM-965; 5% CO2 atmosphere at 37° C) is listed as over 288 µM, the MIC (E. faecium HM-965; ambient air at 37° C) is listed as 4.50 µM (≈ 1 µg/mL) and the MIC (E. faecium HM-968; 5% CO2 atmosphere at 37° C) is listed as over 288 µM. For the same compound, the MIC (E. faecium HM-968; ambient air at 37° C) was 9.01 µM (≈ 2 µg/mL), the “MICs in the presence of CO2” value ([1]; all Enterococcus species, 5% CO2) was over 288 µM and the “All Enterococci spp. MIC50” value ([1]; inhibited 50% of all tested Enterococcus strains, ambient air) was 9.01 µM. For the same compound, the “All Enterococci spp. MIC90” value ([1]; inhibited 90% of all tested Enterococcus strains, ambient air) was 36.0 µM, the MIC (E. faecium NR-31912; 5% CO2 atmosphere at 37° C) was over 288 µM and the MIC (E. faecium NR-31912; ambient air at 37° C) was 9.01 µM (≈ 2 µg/mL). It also gave an MIC (E. faecalis HM-201; 5% CO2 atmosphere at 37° C) of over 288 µM, an MIC (E. faecalis HM-201; ambient air at 37° C) of 18.0 µM (≈ 4 µg/mL) and an MIC ([2]; 5% CO2 atmosphere at 37° C) of over 500 µM. For the same compound, the MIC ([2]; ambient air at 37° C) was over 500 µM, the MIC (E. faecium NR-31914; 5% CO2 atmosphere at 37° C) was over 288 µM and the MIC (E. faecium NR-31914; ambient air at 37° C) was 9.01 µM (≈ 2 µg/mL). The “Log2 (FC)” value [3] was −7.88, the MIC (E. avium ATCC 14025; 5% CO2 atmosphere at 37° C) was over 288 µM and the MIC (E. avium ATCC 14025; ambient air at 37° C) was 72.0 µM (≈ 16 µg/mL). For the same compound, the MIC (E. faecium NR-28978; 5% CO2 atmosphere at 37° C) was over 288 µM, the MIC (E. faecium NR-28978; ambient air at 37° C) was 9.01 µM (≈ 2 µg/mL) and the MIC (E. raffinosus ATCC 49464; 5% CO2 atmosphere at 37° C) was over 288 µM. For the same compound, the MIC (E. raffinosus ATCC 49464; ambient air at 37° C) was 36.0 µM (≈ 8 µg/mL), the MIC (E. faecium NR-32065; 5% CO2 atmosphere at 37° C) was over 288 µM and the MIC (E. faecium NR-32065; ambient air at 37° C) was 4.50 µM (≈ 1 µg/mL). For the same compound, the MIC ([4]; 5% CO2 atmosphere at 37° C) was over 288 µM, the MIC ([4]; ambient air at 37° C) was 72.0 µM (≈ 16 µg/mL) and the MIC (E. gallinarum ATCC 49373; 5% CO2 atmosphere at 37° C) was over 288 µM. The MIC (E. gallinarum ATCC 49373; ambient air at 37° C) was 36.0 µM (≈ 8 µg/mL), the MIC (E. faecium NR-31916; 5% CO2 atmosphere at 37° C) was over 288 µM and the MIC (E. faecium NR-31916; ambient air at 37° C) was 9.01 µM (≈ 2 µg/mL). For the same compound, the MIC (E. faecium NR-32053; 5% CO2 atmosphere at 37° C) was over 288 µM, the MIC (E. faecium NR-32053; ambient air at 37° C) was 4.50 µM (≈ 1 µg/mL) and the “survival (mice rescued)” value (E. faecium NR-31909 [5]; 20 mg/kg PO once-daily for three days, n = 6/group) was 66.7%. For the same compound, the “reduction of VRE bioburden compared to vehicle” value (E. faecium NR-31909 [5]; kidney, liver and spleen, each tissue, 20 mg/kg PO QD three days) was “at least 2 Log10 CFU/mL”, the “reduction of VRE bioburden” value (E. faecium NR-31909 [5]; kidney, liver and spleen, three-day treatment) was over 99% and the MIC ([6]; 5% CO2 atmosphere at 37° C) was over 500 µM. The MIC ([6]; ambient air at 37° C) was over 500 µM, the MIC (E. faecalis HM-934; 5% CO2 atmosphere at 37° C) was over 288 µM and the MIC (E. faecalis HM-934; ambient air at 37° C) was 9.01 µM (≈ 2 µg/mL). For the same compound, the MIC (E. faecium ATCC 700221; 5% CO2 atmosphere at 37° C) was over 288 µM, the MIC (E. faecium ATCC 700221; ambient air at 37° C) was 9.01 µM (≈ 2 µg/mL) and the MIC (E. faecalis HM-335; 5% CO2 atmosphere at 37° C) was over 288 µM. For the same compound, the MIC (E. faecalis HM-335; ambient air at 37° C) was 9.01 µM (≈ 2 µg/mL), the MIC (E. durans ATCC 11576; 5% CO2 atmosphere at 37° C) was over 288 µM and the MIC (E. durans ATCC 11576; ambient air at 37° C) was 2.25 µM (≈ 0.5 µg/mL). For the same compound, the MIC (E. faecium HM-970; 5% CO2 atmosphere at 37° C) was over 288 µM, the MIC (E. faecium HM-970; ambient air at 37° C) was 9.01 µM (≈ 2 µg/mL) and the MIC (E. faecalis HM-334; 5% CO2 atmosphere at 37° C) was over 288 µM. For the same compound, the MIC (E. faecalis HM-334; ambient air at 37° C) was 9.01 µM (≈ 2 µg/mL), the MIC (E. faecium NR-31937; 5% CO2 atmosphere at 37° C) was over 288 µM and the MIC (E. faecium NR-31937; ambient air at 37° C) was 9.01 µM (≈ 2 µg/mL). It also gave an MIC (E. faecium NR-31933; 5% CO2 atmosphere at 37° C) of over 288 µM, an MIC (E. faecium NR-31933; ambient air at 37° C) of 9.01 µM (≈ 2 µg/mL) and an MIC ([7]; 5% CO2 atmosphere at 37° C) of over 500 µM. For the same compound, the MIC ([7]; ambient air at 37° C) was over 500 µM, the MIC (E. faecalis NR-31972; 5% CO2 atmosphere at 37° C) was over 288 µM and the MIC (E. faecalis NR-31972; ambient air at 37° C) was 9.01 µM (≈ 2 µg/mL). For the same compound, the MIC (E. hirae ATCC 10541; 5% CO2 atmosphere at 37° C) was over 288 µM, the MIC (E. hirae ATCC 10541; ambient air at 37° C) was 36.0 µM (≈ 8 µg/mL) and the MIC (E. faecium NR-31909 [8]; 5% CO2 atmosphere at 37° C) was over 288 µM. It also gave an MIC (E. faecium NR-31909 [8]; ambient air at 37° C) of 9.01 µM (≈ 2 µg/mL), an MIC (E. faecium NR-31954; 5% CO2 atmosphere at 37° C) of over 288 µM and an MIC (E. faecium NR-31954; ambient air at 37° C) of 36.0 µM (≈ 8 µg/mL). The MIC ([9]; 5% CO2 atmosphere at 37° C) was over 500 µM, the MIC ([9]; ambient air at 37° C) was 72 µM (≈ 16 µg/mL) and the MIC (E. faecium NR-32052; 5% CO2 atmosphere at 37° C) was over 288 µM. The MIC (E. faecium NR-32052; ambient air at 37° C) was 9.01 µM (≈ 2 µg/mL), the “Ef MIC50” value ([10]; inhibited 50% of the tested E. faecalis and E. faecium strains) was 9.01 µM and the “Ef MIC90” value ([10]; inhibited 90% of the tested E. faecalis and E. faecium strains) was 18 µM. For the same compound, the MIC (E. faecalis NR-31971; 5% CO2 atmosphere at 37° C) was over 288 µM, the MIC (E. faecalis NR-31971; ambient air at 37° C) was 9.01 µM (≈ 2 µg/mL) and the MIC (E. faecium NR-32094; 5% CO2 atmosphere at 37° C) was over 288 µM. The MIC (E. faecium NR-32094; ambient air at 37° C) was 9.01 µM (≈ 2 µg/mL), the MIC (E. faecalis NR-31970; 5% CO2 atmosphere at 37° C) was over 288 µM and the MIC (E. faecalis NR-31970; ambient air at 37° C) was 18.0 µM (≈ 4 µg/mL). For the same compound, the “potency against α-CA over γ-CA based on Ki” value (E. faecium α-CA) was over 5 fold, the MIC (E. faecium HM-952; 5% CO2 atmosphere at 37° C) was over 288 µM and the MIC (E. faecium HM-952; ambient air at 37° C) was 9.01 µM (≈ 2 µg/mL). The MIC (E. faecium NR-31903; 5% CO2 atmosphere at 37° C) was over 288 µM, the MIC (E. faecium NR-31903; ambient air at 37° C) was 9.01 µM (≈ 2 µg/mL) and the MIC ([11]; 5% CO2 atmosphere at 37° C) was over 288 µM. It also gave an MIC ([11]; ambient air at 37° C) of 4.50 µM (≈ 1 µg/mL).
